Results reported in patent US8367671B2, “Pyrazolo[3.4-B]pyrazine compounds as p38 modulators and methods of use as anti-inflamatory agents” (Amgen Inc., priority 2008, dated 2013).

Experiments:
human p38α = human p38α (Homo sapiens, UniProt Q16539); experiment: Purified and activated recombinant human p38α HTRF kinase assay; assay type: biochemical; conditions: 1 nM p38α, 50 μM ATP, 100 nM GST-ATF2-Avitag, 1 hour at RT; read-out: p38a IC50
Protocol: Purified and Activated Recombinant Human p38α Aassay
Kinase Reaction Buffer: Kinase reaction buffer for p38α HTRF assays consists of 50 mM Tris-pH 7.5, 5 mM MgCl2, 0.1 mg/mL BSA, 100 μM Na3VO4 and 0.5 mM DTT.
HTRF Detection Buffer: HTRF detection buffer contains 100 mM HEPES-pH 7.5, 100 mM NaCl, 0.1% BSA, 0.05% Tween-20, and 10 mM EDTA.
Serial Dilution of Compounds: Compounds were dissolved in 100% DMSO and serially diluted (3 fold, 10 point) in a polypropylene 96-well microtiter plate (drug plate). The final starting concentration of compounds in the p38a enzymatic assays was 1 μM. Columns 6 and 12 (HI controls and LO controls respectively) in the drug plate were reserved as controls and contained only DMSO. Kinase Reaction: The p38α kinase reactions were carried out in a polypropylene 96-well black round bottom assay plate in total volume of 30 μL kinase reaction buffer. Appropriate concentration of purified and activated enzyme (recombinant human) was mixed with indicated concentration of ATP and 100 nM GST-ATF2-Avitag, in the presence or absence (HI control) of Compound. See table below for actual concentrations. In the absence of substrate, the background was measured as LO control. The reaction was allowed to incubate for 1 hour at RT. Assay Reagent Concentrations: The final reagent concentrations were 1 nM p38α and 50 μM ATP. The Km for ATP of the enzyme was 103 μM, giving a ratio of ATP concentration to Km of 0.49. […] After 60 minutes incubation at room temperature, the assay plate was read in a Discovery Plate Reader. The wells were excited with coherent 320 nm light and the ratio of delayed ([…] post excitation) emissions at […] (native europium fluorescence) and 665 nm (europium fluorescence transferred to allophycocyanin—an index of substrate phosphorylation) was determined (Park et al, 1999). Data Analysis: The proportion of substrate phosphorylated in the kinase reaction in the presence of compound compared with that phosphorylated in the presence of DMSO vehicle alone (HI control) was calculated using the formula: % control (POC)=(compound−average LO)/(average HI−average LO)*100. Data (consisting of POC and inhibitor concentration in μM) was fitted to a 4-parameter equation (y=A+((B−A)/(1+((x/C)^D))), where A is the minimum y (POC) value, B is the maximum y (POC), C is the x (compound concentration) at the point of inflection and D is the slope factor, using a Levenburg-Marquardt non-linear regression algorithm.
The inhibition constant (Ki) of the inhibitor was estimated from the IC50 (compound concentration at the point of inflection C) using the Cheng-Prussof equation: Ki=IC50/(1+S/Km), where S is the ATP substrate concentration, and Km is the Michaelis constant for ATP as determined experimentally. All results were expressed as the mean±the standard error of the mean. Data acquisition and non-linear regression algorithms were performed using Activity Base v5.2 and XL-fit software v4.1 respectively. All data was archived using Activity Base v5.2 software.

[1] = tested on: TNF-α induced IL-8 in 50% human whole blood; experiment: Inhibition of TNF-α induced IL-8 in 50% human whole blood; assay type: cell-based; conditions: 50% human whole blood activated with 1 nM TNF-α, secreted IL-8, 16-18 hours; read-out: WB TNF/IL8 IC50
Protocol: Inhibition of TNF-α Induced IL-8 in 50% Human Whole Blood
Test compounds were evaluated in vitro for the ability to inhibit the production of secreted IL-8 by whole blood activated with TNF-α. Fresh human whole blood was obtained from healthy, non-medicated volunteers in sodium heparin tubes.
Compound Dilution—Assay Procedure
Test compounds are serially diluted 1:3 in DMSO and then diluted 1:250 into R10 (RPMI 1640, 10% human serum AB, 1× pen/strep/glutamine) to the 4× working concentration to be used in the assay. 100 ul heparinized whole blood is plated into wells of 96 well flat bottom plates. 50 ul of either 4× compound or DMSO control (Final DMSO concentration is 0.1%) are added to the appropriate wells. Plates are incubated for 1 hour at 37 degrees Celsius. 50 ul of 4× TNF-α (4 nM TNF-α, for a final concentration of 1 nM) or control (media alone) is added to the appropriate wells (Total volume=200 ul). Plates are incubated overnight (16-18 hours). 100 ul of supernatant is collected and stored in 96-well round bottom polypropylene plates at −80 degrees Celsius or assayed immediately for IL-8.
Cytokines are measured on antibody (Ab) sandwich ECL based 96-well detection plates. 20 ul of supernatant are added to plate and plate is sealed and shaken at RT for 1 hour. 130 ul of detection Ab cocktail is added and plates are sealed and shaken for 1 hour in the dark at RT. Plates are read on MSD Sector HTS instrument. Data are analyzed and IC50 values generated using Activity Base and Xl-fit programs.

Sequence of human p38α (Q16539 whole entry): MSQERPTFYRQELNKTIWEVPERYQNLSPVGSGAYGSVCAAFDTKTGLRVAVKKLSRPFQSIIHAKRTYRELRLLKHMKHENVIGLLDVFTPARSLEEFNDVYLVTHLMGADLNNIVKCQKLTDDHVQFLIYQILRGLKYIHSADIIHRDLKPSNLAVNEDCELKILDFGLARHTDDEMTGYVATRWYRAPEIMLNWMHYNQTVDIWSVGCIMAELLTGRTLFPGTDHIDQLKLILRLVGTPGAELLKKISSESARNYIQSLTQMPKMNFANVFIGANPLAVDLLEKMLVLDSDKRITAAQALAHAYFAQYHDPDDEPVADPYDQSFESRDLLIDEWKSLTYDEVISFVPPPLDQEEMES

IC50 (human p38α) [nM] | IC50 [1] [nM] | SMILES
1.2 | 3.2 | Cc1c(F)cc(C(=O)Nc2ccon2)cc1-c1nc2cnn(-c3c(F)cccc3F)c2n(C)c1=O [Example 6, 3-(1-(2,6-difluorophenyl)-7-methyl-6-oxo-6,7-dihydro-1H-pyrazolo[3,4-b]pyrazin-5-yl)-5-fluoro-N-3-isoxazolyl-4-methylbenzamide]
22 | 23 | CCn1c(=O)c(-c2cc(C(N)=O)cc(F)c2C)nc2cnn(-c3c(F)cccc3F)c21 [Example 12, 3-(1-(2,6-difluorophenyl)-7-ethyl-6-oxo-6,7-dihydro-1H-pyrazolo[3,4-b]pyrazin-5-yl)-5-fluoro-4-methylbenzamide]
3.3 | 7.3 | Cc1ccc(C(=O)NC2CC2)cc1-c1nc2cnn(-c3c(F)cccc3F)c2n(C)c1=O [Example 3, N-cyclopropyl-3-(1-(2,6-difluorophenyl)-7-methyl-6-oxo-6,7-dihydro-1H-pyrazolo[3,4-b]pyrazin-5-yl)-4-methylbenzamide]
10 | 3.7 | Cc1ccc(C(=O)Nc2ccon2)cc1-c1nc2cnn(-c3c(F)cccc3F)c2n(C)c1=O [Example 10, 3-(1-(2,6-difluorophenyl)-7-methyl-6-oxo-6,7-dihydro-1H-pyrazolo[3,4-b]pyrazin-5-yl)-N-3-isoxazolyl-4-methylbenzamide]
2.3 | 3 | CCn1c(=O)c(-c2cc(C(=O)NC3CC3)cc(F)c2C)nc2cnn(-c3c(F)cccc3F)c21 [Example 11, N-cyclopropyl-3-(1-(2,6-difluorophenyl)-7-ethyl-6-oxo-6,7-dihydro-1H-pyrazolo[3,4-b]pyrazin-5-yl)-5-fluoro-4-methylbenzamide]
1.8 | 10.7 | Cc1c(F)cc(C(=O)NC2CC2)cc1-c1nc2cnn(-c3c(F)cccc3F)c2n(C)c1=O [Example 1, N-Cyclopropyl-3-(1-(2,6-difluorophenyl)-7-methyl-6-oxo-6,7-dihydro-1H-pyrazolo[4,3-b]pyrazin-5-yl)-5-fluoro-4-methylbenzamide]
4.6 | 13 | Cc1c(F)cc(C(=O)Nc2ccon2)cc1-c1nc2cnn(-c3ccc(F)cc3F)c2n(C)c1=O [Example 8, 3-(1-(2,4-difluorophenyl)-7-methyl-6-oxo-6,7-dihydro-1H-pyrazolo[3,4-b]pyrazin-5-yl)-5-fluoro-N-3-isoxazolyl-4-methylbenzamide]
0.7 | 1.2 | CCn1c(=O)c(-c2cc(C(=O)Nc3ccon3)ccc2C)nc2cnn(-c3c(F)cccc3F)c21 [Example 13, 3-(1-(2,6-difluorophenyl)-7-ethyl-6-oxo-6,7-dihydro-1H-pyrazolo[3,4-b]pyrazin-5-yl)-N-3-isoxazolyl-4-methylbenzamide]
2.5 | 6.1 | CCn1c(=O)c(-c2cc(C(=O)Nc3ccon3)cc(F)c2C)nc2cnn(-c3ccc(F)cc3F)c21 [Example 2, 3-(1-(2,4-Difluorophenyl)-7-ethyl-6-oxo-6,7-dihydro-1H-pyrazolo[4,3-b]pyrazin-5-yl)-5-fluoro-N-(isoxazol-3-yl)-4-methylbenzamide]
34 | 25 | Cc1c(F)cc(C(=O)NC2CC2)cc1-c1nc2cnn(-c3ccc(F)cc3F)c2n(C)c1=O [Example 7, N-cyclopropyl-3-(1-(2,4-difluorophenyl)-7-methyl-6-oxo-6,7-dihydro-1H-pyrazolo[3,4-b]pyrazin-5-yl)-5-fluoro-4-methylbenzamide]
8.5 | 41 | Cc1ccc(C(N)=O)cc1-c1nc2cnn(-c3c(F)cccc3F)c2n(C)c1=O [Example 4, 3-(1-(2,6-difluorophenyl)-7-methyl-6-oxo-6,7-dihydro-1H-pyrazolo[3,4-b]pyrazin-5-yl)-4-methylbenzamide]
1.4 | 5.8 | CCn1c(=O)c(-c2cc(C(=O)NC3CC3)ccc2C)nc2cnn(-c3c(F)cccc3F)c21 [Example 5, N-cyclopropyl-3-(1-(2,6-difluorophenyl)-7-ethyl-6-oxo-6,7-dihydro-1H-pyrazolo[3,4-b]pyrazin-5-yl)-4-methylbenzamide]
5 | 8.4 | CCn1c(=O)c(-c2cc(C(=O)NC3CC3)cc(F)c2C)nc2cnn(-c3ccc(F)cc3F)c21 [Example 9, N-cyclopropyl-3-(1-(2,4-difluorophenyl)-7-ethyl-6-oxo-6,7-dihydro-1H-pyrazolo[3,4-b]pyrazin-5-yl)-5-fluoro-4-methylbenzamide]
